pKi: −log10 of the molar value. Where two headings read alike, the source gives them in different places.
Tests used:
human α-thrombin = human α-thrombin (Homo sapiens, UniProt P00734); experiment: Determination of Ki: inhibition of human α-thrombin catalysed hydrolysis of chromogenic substrate S-2238; assay type: biochemical
Experimental: The inhibition of human α-thrombin was determined by the inhibition of the enzyme catalysed hydrolysis of three different concentrations of the chromogenic substrate S-2238.
200 μl of sample or buffer and 50 μl of S-2238 were incubated at 37° C. for 1 min and 50 μl of human α-thrombin (0.25 NIH μ/ml) was added. The initial rate of inhibited and uninhibited reactions were recorded at […]. The increase in optical density was plotted according to the method of Lineweaver and Burke. The Km and apparent Km were determined and Ki was calculated using the relationship. [formula]
The buffer used contained 0.1M sodium phosphate, 0.2M NaCl, 0.5% PEG and 0.02% sodium azide, adjusted to pH 7.5 with orthophosphoric acid.
The samples consist of the compound dissolved in DMSO.
The reader is referred to Dixon, M and Webb, E. C., "Enzymes", third edition, 1979, Academic Press, the disclosure of which is incorporated herein by reference, for a further description of the measurement of Ki.

elastase = experiment: Inhibition constant (Ki) against elastase; assay type: biochemical
[1] = Table 4, 37° C., substrate S-2238
[2] = Table 5, Ki against elastase, 37° C., read-out: Ela
[3] = Table 6, comparative with prior art compounds, unit inferred, read-out: Ki(elastase)
[4] = Table 6, comparative with prior art compounds, unit inferred

Compound: CCOP(=O)(OCC)C(OC(=O)C1CCCN1C(=O)C(NC(=O)OCc1ccccc1)C(c1ccccc1)c1ccccc1)c1ccc([N+](=O)[O-])cc1 (racemic) [Example 239, Cbz-DL-Dpa-Pro-CO2 pNO2Phg^P (OEt)2]
- pKi (human α-thrombin; [1]): 5.21

Compound: CCOP(=O)(OCC)C(OC(=O)[C@@H]1CCCN1C(=O)C(NC(=O)OCc1ccccc1)C(c1ccccc1)c1ccccc1)c1ccccc1 (mixture of isomers) [Example 264, Cbz-DL-Dpa-Pro.psi.(CO2)Phg^P (OEt)2]
- pKi (human α-thrombin; [1]): 4.80

Compound: CC(C)C(OC(=O)C1CCCN1C(=O)C(NC(=O)OCc1ccccc1)C(c1ccccc1)c1ccccc1)B1OC2CC3CC(C3(C)C)C2(C)O1 [Example 87, Benzyloxycarbonyl-D,L-diphenylalanylprolyl-.psi.(CO2)-borovaline pinanediol ester]
- pKi (human α-thrombin; [1]): 4.74
- pKi (elastase; [2]): 4.26

Compound: CCC(OC(=O)C1CCCN1C(=O)C(NC(=O)OCc1ccccc1)C(c1ccccc1)c1ccccc1)B1OC2CC3CC(C3(C)C)C2(C)O1 [Example 90, Cbz-D,L-Dpa-Pro-.psi.(CO2)-1-propyl-1-boronate pinanediol]
- pKi (human α-thrombin; [1]): 6.61
- pKi (elastase; [2]): 5.35

Compound: CC1(C)C2CC3OB(C(Cc4ccccc4)OC(=O)C4CCCN4C(=O)[C@H](NC(=O)OCc4ccccc4)C(c4ccccc4)c4ccccc4)OC3(C)C1C2 (stereo partly drawn) [Example 91, Cbz-D-Dpa-Pro-.psi.(CO2)-boroPhe pinanediol]
- pKi (human α-thrombin; [1]): 7.41

Compound: CC1(C)C2CC3OB(C(OC(=O)C4CCCN4C(=O)[C@@H](Cc4ccccc4)NC(=O)OCc4ccccc4)c4ccccc4)OC3(C)C1C2 (stereo partly drawn) [Example 100, Cbz-D-Phe-Pro-.psi.(CO2)-boroPgl pinanediol]
- pKi (human α-thrombin; [1]): 7.06

Compound: CC1(C)C2CC3OB(C(OC(=O)C4CCCN4C(=O)C(NC(=O)OCc4ccccc4)C(c4ccccc4)c4ccccc4)c4ccccc4)OC3(C)C1C2 [Example 101, Cbz-D,L-Dpa-Pro-.psi.(CO2)-BoroPgl pinanediol]
- pKi (human α-thrombin; [1]): 6.88

Compound: CC(C)C(NC(=O)C1CCCN1C(=O)C(NC(=O)OCc1ccccc1)C(c1ccccc1)c1ccccc1)B1OC(C)(C)C(C)(C)O1 [Z-D-Dpa-Pro-BoroVal-OPin, reference compound]
- pKi (elastase; [3]): < 4.15

Compound: Cbz-D,L-Dpa-Pro-(CO2)boroPhe-OPin [Example 89]
- pKi (human α-thrombin; [1]): 7.41

Compound: Cbz-D-Dpa-Pro-.psi.(CO2)-GlyP(-)OPin [Example 177]
- pKi (human α-thrombin; [1]): 4.86

Compound: Cbz-D-Dpa-Pro-.psi.(COCH2)BoroHpg(-)OPin [Example 270]
- pKi (human α-thrombin; [1]): 6.53

Compound: Cbz-D-Phe-Pro-.psi.(CH2 O)-BoroPhe-OPin [Example 102]
- pKi (human α-thrombin; [1]): 6.83

Compound: Cbz-D-Phe-Pro-.psi.(CO2)-BoroPhe-OPin [Example 88]
- pKi (human α-thrombin; [1]): 6.89

Compound: Cbz-D-Phe-Pro-.psi.(CO2)-boroethylglycine pinanediol [Example 85]
- pKi (human α-thrombin; [1]): 6.57
- pKi (elastase; [2]): 7.06

Compound: Z-D,L-Dpa-(CO2)BoroMpgOPin [Example 109]
- pKi (human α-thrombin; [1]): 6.36

Compound: Z-D,L-Dpa-Pro-BoroPhe-OPin [reference compound]
- pKi (human α-thrombin; [4]): 7.09

Compound: Z-D-Dpa-Pro(CO2)-L-BoroMpgOPin [Example 116]
- pKi (human α-thrombin; [1]): 6.55

Compound: Z-D-Dpa-Pro-(CH2 O)-L-BoroMpg-OPin [Example 173]
- pKi (human α-thrombin; [1]): 5.62

Compound: Z-D-Phe-ProBoroEtgOPin [reference compound]
- pKi (human α-thrombin; [4]): 6.00
- pKi (elastase; [3]): 6.25
